Among the test systems are EKVX NSCLC; HOP-62 NSCLC; HT29 colon; M14 melanoma; MALME-3M melanoma; NCI-H522 lung; SF-539 CNS; SK-MEL-5 melanoma; SW-620 colon; UO-31 renal.
Holding throughout (assay): NCI tumour cell line growth inhibition, 48 h

Several values for one entry are separate records, joined by “and”; a condition that tells them apart may be missing. Equal entries are not always repeated.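 Grown in 96-well plates, cells were treated for 48 hours with each compound at five concentrations. Insufficient inhibition: endpoint recorded as highest concentration tested. GI50 marks 50% less growth. TGI: total growth inhibition.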

Turning to `Nc1n[nH]c2ccc([C@@H]3Nc4cc5c(cc4[C@H]4C6CCC(C6)[C@@H]34)C(=O)NC5)cc12` (some centres undefined), the GI50 is 0.734 µM in the test on EKVX NSCLC; 0.513 µM in the test with HOP-62 NSCLC; 0.393 µM with HT29 colon; 0.287 µM in the test with M14 melanoma; 0.718 µM in the test with MALME-3M melanoma; 0.305 µM in the test with NCI-H522 lung. Moreover, the figures for the GI50 with SF-539 CNS, with SK-MEL-5 melanoma and with SW-620 colon were 0.258 µM, 0.232 µM and 0.362 µM, respectively. In addition, the TGI in the test with EKVX NSCLC was more than 100 µM; in the test with HOP-62 NSCLC, more than 100 µM; in the test with HT29 colon, more than 100 µM; in the test with M14 melanoma it was more than 43.1 µM; with MALME-3M melanoma, more than 100 µM; with NCI-H522 lung, more than 100 µM. Further, the TGI in the test on SF-539 CNS is 0.814 µM; in the test with SK-MEL-5 melanoma, 0.612 µM; in the test with SW-620 colon it was more than 100 µM; with UO-31 renal, more than 100 µM.
For `CC1=C(C(=O)Nc2ccc(Cl)c(Cl)c2)C(c2ccc([N+](=O)[O-])cc2)C(C(=O)Nc2ccc(Cl)c(Cl)c2)=C(C)N1`, the TGI in the test with EKVX NSCLC was found to be 15.4 µM; with HOP-62 NSCLC, 8.7 µM; in the test on HT29 colon it was 7.55 µM; in the test on M14 melanoma, 3.82 µM; in the test on MALME-3M melanoma, 7.06 µM; with NCI-H522 lung, 8.85 µM. For the same compound, the TGI in the test with SF-539 CNS amounted to 12.1 µM; with SK-MEL-5 melanoma, 3.39 µM; in the test with SW-620 colon, 12.4 µM; with UO-31 renal, 10.6 µM.
As for `Nc1nc(N)c(CCCCc2ccccc2)c(N)n1`, the TGI in the test with EKVX NSCLC, in the test with HOP-62 NSCLC, with HT29 colon, with M14 melanoma, in the test with MALME-3M melanoma and with NCI-H522 lung was more than 100 µM in each case. In addition, the TGI in the test on SF-539 CNS, in the test on SK-MEL-5 melanoma, in the test with SW-620 colon and with UO-31 renal was more than 100 µM throughout.
Regarding `N#CC1(C#N)C(c2ccccc2)C=CC12OCCCO2` (centres undefined), the TGI is more than 100 µM in the test with EKVX NSCLC; more than 100 µM in the test with HOP-62 NSCLC; more than 100 µM in the test with HT29 colon; more than 100 µM in the test with M14 melanoma; more than 100 µM in the test on MALME-3M melanoma; 32.6 µM in the test with NCI-H522 lung. Also, the TGI was 45.9 µM in the test on SF-539 CNS, more than 100 µM in the test with SK-MEL-5 melanoma, more than 100 µM in the test on SW-620 colon and more than 100 µM in the test on UO-31 renal.
Regarding `Cc1cc(C)c(C2CNCc3cc4c(cc32)CNCC4c2c(C)cc(C)cc2C)c(C)c1` (centres undefined), the GI50 in the test with EKVX NSCLC is 5.97 µg/mL; in the test with HOP-62 NSCLC it was 8.62 µg/mL; with HT29 colon, 2.75 µg/mL; in the test on M14 melanoma, 1.83 µg/mL; in the test on MALME-3M melanoma, 3.05 µg/mL; in the test on NCI-H522 lung, 3.23 µg/mL. In addition, the GI50 in the test with SF-539 CNS was 2.23 µg/mL; in the test with SK-MEL-5 melanoma, 2 µg/mL; with SW-620 colon it was 3.11 µg/mL; in the test with UO-31 renal, 2.04 µg/mL. The TGI came to 17.2 µg/mL in the test on EKVX NSCLC; 22.3 µg/mL in the test with HOP-62 NSCLC; 8.35 µg/mL in the test on HT29 colon; 3.28 µg/mL with M14 melanoma; 7.45 µg/mL in the test with MALME-3M melanoma; 9.18 µg/mL with NCI-H522 lung. Also, the TGI in the test with SF-539 CNS turned out to be 3.85 µg/mL; in the test with SK-MEL-5 melanoma it was 3.96 µg/mL; with SW-620 colon it was 11.5 µg/mL; in the test with UO-31 renal, 5.56 µg/mL.
For `COc1cc(C(=O)Nc2cc(O)c(CC=C(C)C)c(O)c2)cc2c1O[C@]1(C)CC[C@@H](O)C(C)(C)[C@H]1C2`, the GI50 in the test with EKVX NSCLC was 2.71 µM; in the test with HOP-62 NSCLC, 0.46 µM; in the test on HT29 colon, 1.9 µM; in the test on M14 melanoma, 0.333 µM; with MALME-3M melanoma it was 2.85 µM; with NCI-H522 lung it was 1.92 µM. Further, the GI50 is 0.0391 µM with SF-539 CNS, 1.13 µM in the test on SK-MEL-5 melanoma, 1.15 µM with SW-620 colon and 0.506 µM with UO-31 renal. Further, the TGI with EKVX NSCLC was found to be 32 µM; with HOP-62 NSCLC it was 8.81 µM; in the test with HT29 colon, 12.3 µM; in the test with M14 melanoma, 2.35 µM; in the test with MALME-3M melanoma, 20 µM; in the test on NCI-H522 lung, 14.6 µM. Moreover, the TGI in the test on SF-539 CNS is 1.51 µM; with SK-MEL-5 melanoma, 3.51 µM; with SW-620 colon it was 11.9 µM; with UO-31 renal it was 4.13 µM.
For `O=C(Cc1nc2ccccc2o1)C(=O)Nc1cccc(C(F)(F)F)c1`, the TGI in the test with EKVX NSCLC, with HOP-62 NSCLC, in the test with HT29 colon, in the test with M14 melanoma, in the test with MALME-3M melanoma and in the test with NCI-H522 lung was more than 100 µM throughout. The TGI with SF-539 CNS, with SK-MEL-5 melanoma, in the test on SW-620 colon and in the test on UO-31 renal was more than 100 µM in each case.
Turning to `COc1ccc(-c2[nH]c3ccccc3c2CCNS(=O)(=O)c2ccc(C)cc2)cc1`, the TGI with EKVX NSCLC, in the test with HOP-62 NSCLC, with HT29 colon, with M14 melanoma, with MALME-3M melanoma and in the test with NCI-H522 lung was more than 10 µM each time. In addition, the TGI in the test with SF-539 CNS, with SK-MEL-5 melanoma, in the test with SW-620 colon and in the test with UO-31 renal was more than 10 µM in each case.
For the compound `O=C(O)c1ccccc1NC(=S)c1ccccc1`, the TGI in the test with EKVX NSCLC was more than 100 µM; in the test with HOP-62 NSCLC it was more than 100 µM; in the test on HT29 colon, more than 100 µM; in the test on M14 melanoma, more than 100 µM; with MALME-3M melanoma, 65.9 µM; with NCI-H522 lung, 39.8 µM. Further, the TGI with SF-539 CNS, with SK-MEL-5 melanoma, in the test on SW-620 colon and with UO-31 renal was more than 100 µM in each case.
With `N#CNc1nc(N)c(-c2ccc(Cl)cc2)c(C(=O)Nc2nccs2)n1`, the TGI with EKVX NSCLC, in the test on HOP-62 NSCLC, with HT29 colon, in the test with M14 melanoma, in the test on MALME-3M melanoma and in the test with NCI-H522 lung was more than 100 µM throughout. The TGI with SF-539 CNS, with SK-MEL-5 melanoma, in the test with SW-620 colon and with UO-31 renal was more than 100 µM each time.
Take `COc1ccc(/C=C(/C)[N+](=O)[O-])cc1OC`: the GI50 is 10.9 µM and 5.4 µM with EKVX NSCLC; 2.03 µM and 4.17 µM with HOP-62 NSCLC; 2.62 µM and 1.41 µM in the test on HT29 colon; 1.97 µM and 1.69 µM with M14 melanoma; 1.69 µM and 0.38 µM in the test with MALME-3M melanoma; 0.456 µM and 0.48 µM with NCI-H522 lung. Moreover, the GI50 with SF-539 CNS is 2.08 µM and 2.22 µM; in the test with SK-MEL-5 melanoma, 1.71 µM and 1.9 µM; in the test on SW-620 colon, 1.56 µM and 1.1 µM; in the test on UO-31 renal, 1.74 µM and 1.61 µM. Moreover, the TGI is 28.6 µM and 19.8 µM with EKVX NSCLC; 4.36 µM and 14.8 µM in the test on HOP-62 NSCLC; 5.92 µM and 4.07 µM with HT29 colon; 3.8 µM and 3.42 µM in the test with M14 melanoma; 3.89 µM and 1.56 µM with MALME-3M melanoma; 1.14 µM and 2.26 µM with NCI-H522 lung. Also, the TGI with SF-539 CNS is 3.94 µM and 4.7 µM; in the test on SK-MEL-5 melanoma, 3.09 µM and 3.43 µM; with SW-620 colon, 3.04 µM and 2.7 µM; with UO-31 renal, 3.26 µM and 3.23 µM.
For the compound `O=C(Nc1ccccc1OC(=O)c1ccccc1)c1ccccc1`, the GI50 was 7.45 µM in the test with EKVX NSCLC; 18.8 µM with HOP-62 NSCLC; 3.76 µM in the test with HT29 colon; 25.3 µM in the test with M14 melanoma; 14.5 µM with MALME-3M melanoma; 11.2 µM with NCI-H522 lung. The GI50 was 22.8 µM with SF-539 CNS, 31.5 µM with SK-MEL-5 melanoma, 4.25 µM in the test on SW-620 colon and 13.8 µM with UO-31 renal. Also, the TGI in the test with EKVX NSCLC was more than 100 µM; in the test on HOP-62 NSCLC, more than 100 µM; in the test on HT29 colon it was 41.4 µM; in the test on M14 melanoma, more than 100 µM; in the test with MALME-3M melanoma, more than 100 µM; with NCI-H522 lung, 77.9 µM. The TGI with SF-539 CNS, in the test on SK-MEL-5 melanoma, with SW-620 colon and in the test on UO-31 renal was more than 100 µM each time.
Turning to `O=Nc1c(-c2c(O)[nH]c3ncccc23)[nH]c2ccccc12`, the GI50 with EKVX NSCLC was 1.32 µM; in the test on HOP-62 NSCLC, more than 100 µM; in the test with HT29 colon, more than 94.2 µM; in the test with M14 melanoma, 10.8 µM; with MALME-3M melanoma, 8.83 µM; in the test with NCI-H522 lung, more than 53.6 µM. The GI50 in the test on SF-539 CNS is more than 100 µM; with SK-MEL-5 melanoma, 15 µM; in the test on SW-620 colon, 11.3 µM; in the test with UO-31 renal, 1.64 µM. The TGI is more than 100 µM in the test with EKVX NSCLC; more than 100 µM with HOP-62 NSCLC; more than 100 µM with HT29 colon; more than 100 µM in the test with M14 melanoma; more than 41.5 µM in the test with MALME-3M melanoma; more than 100 µM in the test on NCI-H522 lung. Also, the TGI in the test on SF-539 CNS, with SK-MEL-5 melanoma, in the test with SW-620 colon and in the test with UO-31 renal was more than 100 µM throughout.
For the compound `O=C1C=C(O)C(=Cc2c(O)cc(O)cc2O)C(O)=C1`, the TGI with EKVX NSCLC, with HOP-62 NSCLC, in the test with HT29 colon, in the test with M14 melanoma, in the test with MALME-3M melanoma and with NCI-H522 lung was more than 100 µM each time. The TGI in the test with SF-539 CNS, with SK-MEL-5 melanoma, in the test with SW-620 colon and in the test on UO-31 renal was more than 100 µM in each case.
As to `Cc1[nH]nc(-c2ccon2)c1N=O`, the TGI is 31.3 µM in the test with EKVX NSCLC; 41.9 µM with HOP-62 NSCLC; 39.6 µM in the test on HT29 colon; 43.5 µM in the test with M14 melanoma; 38.2 µM in the test on MALME-3M melanoma; 48.5 µM with NCI-H522 lung. Besides, the TGI worked out at 32.7 µM in the test with SF-539 CNS, 34.3 µM in the test with SK-MEL-5 melanoma, 49.1 µM in the test with SW-620 colon and 46.6 µM with UO-31 renal.

The values are drawn from PubChem BioAssay (NCI).
